Key:
[1] = target: T1, Trpv2 (Rattus norvegicus, UniProt Q9WUD2); test: Intracellular calcium influx (Fluo-4 NW) in DA FLS; assay type: cell-based; parameters: endogenous in cells; host or cells: fibroblast-like synoviocytes (FLS) from DA rats; conditions: measured over 200 seconds; compared with O1821
T1 sequence (Q9WUD2 1-761): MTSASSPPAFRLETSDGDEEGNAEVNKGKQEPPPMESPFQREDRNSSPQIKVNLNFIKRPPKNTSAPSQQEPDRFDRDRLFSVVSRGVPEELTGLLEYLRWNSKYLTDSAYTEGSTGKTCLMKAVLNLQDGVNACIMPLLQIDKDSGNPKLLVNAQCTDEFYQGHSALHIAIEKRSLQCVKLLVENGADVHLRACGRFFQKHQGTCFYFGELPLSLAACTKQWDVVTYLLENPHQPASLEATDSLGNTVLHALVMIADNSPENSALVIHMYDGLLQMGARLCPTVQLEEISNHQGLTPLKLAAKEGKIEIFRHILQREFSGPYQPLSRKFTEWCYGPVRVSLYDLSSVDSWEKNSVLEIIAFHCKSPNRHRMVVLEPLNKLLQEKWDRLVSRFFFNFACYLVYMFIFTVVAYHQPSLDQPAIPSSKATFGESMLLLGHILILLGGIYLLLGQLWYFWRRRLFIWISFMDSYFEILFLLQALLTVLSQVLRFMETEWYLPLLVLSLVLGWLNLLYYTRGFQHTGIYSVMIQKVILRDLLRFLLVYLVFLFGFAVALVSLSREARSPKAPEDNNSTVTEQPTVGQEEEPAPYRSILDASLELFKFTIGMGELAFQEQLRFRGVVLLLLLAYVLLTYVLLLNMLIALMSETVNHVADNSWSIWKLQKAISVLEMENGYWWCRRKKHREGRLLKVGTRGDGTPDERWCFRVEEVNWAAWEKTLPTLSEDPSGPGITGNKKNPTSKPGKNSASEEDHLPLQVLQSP
Protocol: Intracellular calcium influx was measured using the Fluo-4 NW calcium assay kit (Molecular Probes/Invitrogen) according to the manufacturer's instructions, as previously described (Laragione et al., “CXCL10 and its Receptor CXCR3 Regulate Synovial Fibroblast Invasion in Rheumatoid Arthritis,” Arthritis Rheum. 63 (11):3274-3283 (2011), which is hereby incorporated by reference in its entirety). Briefly, DA FLS were plated at a density of 4,500 cells/well in a 96-well plate (100 μl volume of complete media per well). After cell adhesion the media was changed to serum-free media for overnight culture. Serum-free media was then replaced with 50 μl of dye loading solution, followed by incubation at 37° C. for 30 minutes and a baseline fluorimetric reading. Then, O1821, LER13, or vehicle were added to their respective wells at different concentrations and fluorescence read immediately in a Fluoroskan Ascent Microplate Fluorometer (Thermo Scientific) with settings appropriate for excitation at 494 nm and emission at 516 nm.

[2] = system: FLS; test: FLS invasion, focused library screen (Table 1); assay type: cell-based; conditions: evaluated over 24 hours in vitro
Protocol: The in vitro invasiveness of FLS was assayed in a transwell system using Matrigel-coated inserts (BD Biosciences, Franklin Lakes, N.J.), as previously described (Tolboom et al., “Invasiveness of Fibroblast-Like Synoviocytes is an Individual Patient Characteristic Associated with the Rate of Joint Destruction in Patients with Rheumatoid Arthritis,” Arthritis Rheum. 52 (7):1999-2002 (2005); Laragione et al., “The Arthritis Severity Locus Cia5d is a Novel Genetic Regulator of the Invasive Properties of Synovial Fibroblasts,” Arthritis Rheum. 58 (8):2296-2306 (2008), which are hereby incorporated by reference in their entirety). Briefly, 70-80% confluent cells were harvested by trypsin-EDTA digestion, and re-suspended at 2.0×10^4 cells in 500 μl of serum-free DMEM. Cells were placed in the upper compartment of the Matrigel-coated inserts. Where indicated, O1821, LER13, or vehicle was added to the upper chamber. The lower compartment was filled with complete media and the plates were incubated at 37° C. for 24 hours. After 24 hours the upper surface of the insert was wiped with cotton-swabs to remove non-invading cells and the Matrigel layer. The opposite side of the insert was stained with Crystal Violet (Sigma) and the total number of cells that invaded through Matrigel counted at 100× magnification. Experiments were done in duplicate.

[3] = system: C57BL/6 mice with KRN serum transfer-induced arthritis; test: KRN serum transfer induced arthritis (clinical scores and histology); assay type: in vivo, mouse; conditions: KRN serum induced arthritis
Protocol: Seven to eight week-old C57BL/6 male mice (Jackson Laboratories) received 200 μl of KRN arthritogenic serum (Ji et al, “Genetic Influences on the End-Stage Effector Phase of Arthritis,” J. Exp. Med. 194 (3):321-330 (2001), which is hereby incorporated by reference in its entirety) (KBN TCR transgenic mice were a kind gift from Christophe Benoist and have been intercrossed with NOD at the Feinstein Institute to generate KRN mice and the arthritogenic serum) intraperitoneal (IP) on day zero (D0) and day 2 (D2). After the onset of clear ankle arthritis (day 3; D3), mice were started on O1821 10 mg/Kg IP BID or control vehicle (DMSO in saline solution). Arthritis severity was scored according to the system reported by Jirholt et al., “Genetic Linkage Analysis of Collagen-Induced Arthritis in the Mouse,” Eur. J. Immunol. 28 (10):3321-3328 (1998), which is hereby incorporated by reference in its entirety, which includes a number of involved joints and a degree of inflammation (swelling/redness) in a scale of 0-12 per mouse per day.
[…] Histology slides were scored without knowledge of treatment and according to a comprehensive scoring system previously reported that includes parameters for synovial hyperplasia, inflammatory cell infiltration, and bone and cartilage erosions (Brenner et al., “The Non-MHC Quantitative Trait Locus Cia10 Contains a Major Arthritis Gene and Regulates Disease Severity, Pannus Formation and Joint Damage,” Arthritis Rheum. 52 (1):322-332 (2005), which is hereby incorporated by reference in its entirety).

[4] = system: DBA1/J mice with collagen-induced arthritis; test: Collagen induced arthritis (CIA); assay type: in vivo, mouse; conditions: for Arthritis severity (CIA): collagen-induced arthritis
Text: CIA was induced in 8-week-old male DBA1/J mice (Jackson Laboratories) using a standard protocol (Courtenay et al., “Immunisation Against Heterologous Type II Collagen Induces Arthritis in Mice,” Nature 283 (5748):666-668 (1980); Nagler-Anderson et al., “Suppression of Type II Collagen-Induced Arthritis by Intragastric Administration of Soluble Type II Collagen,” Proc. Natl. Acad. Sci. U.S.A. 83 (19):7443-7446 (1986), which are hereby incorporated by reference in their entirety). Briefly, bovine type II collagen (Chondrex, Redmond, Wash.) was dissolved overnight in acetic acid 0.1 N and then homogenized at 1:1 with Complete Freund's Adjuvant (CFA, Difco, Detroit, Mich.). Anesthetized mice were injected intradermally with 100 μg of type II collagen emulsified in CFA in the tail. The new Trpv2 agonist LER13 (10 mg/Kg) or control vehicle (PBS 50%, PEG300 40%, PG 5%, PS80 5%) was started on day 10 (D10) and administered intra-peritoneally every-other-day (from D10 until day 55). On day 21 (D21), mice received a booster injection of 100 μg of type II collagen in incomplete Freund's adjuvant. Clinical signs of arthritis were evident on day 24 (D24).
Arthritis severity in CIA mice was scored using a modified scoring system based on Jirholt et al., “Genetic Linkage Analysis of Collagen-Induced Arthritis in the Mouse,” Eur. J. Immunol. 28 (10):3321-3328 (1998), which is hereby incorporated by reference in its entirety. Briefly, the modified scoring system ranged from 0-16 per mouse per day and included a functional component of disease severity (non-weight bearing) in the maximum score of 4 per paw. The arthritis severity index (ASI), which is the sum of all scores obtained during the observation period, was used to compare treatment groups as it provides a comprehensive assessment of arthritis severity over time, and correlates with histologic damage (Brenner et al., “The Non-MHC Quantitative Trait Locus Cia10 Contains a Major Arthritis Gene and Regulates Disease Severity, Pannus Formation and Joint Damage,” Arthritis Rheum. 52 (1):322-332 (2005); Brenner et al., “The Non-MHC Quantitative Trait Locus Cia5 Contains Three Major Arthritis Genes that Differentially Regulate Disease Severity, Pannus Formation, and Joint Damage in Collagen- and Pristane-Induced Arthritis,” J. Immunol. 174 (12):7894-7903 (2005), which are hereby incorporated by reference in their entirety).

With `C=C(C)[C@H]1CCC(C)=CC1c1c(O)cc(O)c([C@@H]2C=C(C)CC[C@H]2C(=C)C)c1O` (some centres unmarked) [Compound 4] the Calcium influx [1] was “increased (25% less than O1821)”.
`C=C(C)[C@@H]1CCC(C)=CC1c1c(O)cc(F)cc1O` (some centres unmarked) [Compound 9] was tested, and the Calcium influx [1] was “increased (similar to O1821)”.
For `C=C(C)[C@H]1CCC(C)=CC1c1c(/C=C/c2ccc(O)cc2)cc(O)c([C@@H]2C=C(C)CC[C@H]2C(=C)C)c1O` (some centres unmarked) [Compound 6], the Calcium influx [1] was “increased (similar to O1821)”.
With `C=C(C)[C@@H]1CCC(C)=CC1c1c(O)cc(O)cc1Cl` (some centres unmarked) [Compound 11] the Calcium influx [1] was “increased (20% greater than O1821)”.
For `C=C(C)[C@@H]1CCC(C)=C[C@H]1c1c(O)cc(C)cc1O` [Compound 1], the “FLS invasion decreased by” value [2] was “Decreased by 30%”, the Calcium influx [1] was “increased” and the “Arthritis severity (KRN)” value [3] was “Protective KRN”.
`C=C(C)[C@H]1CCC(C)=CC1c1c(O)cc(O)cc1/C=C/c1ccc(O)cc1` (some centres unmarked) [Compound 8] was tested, and the Calcium influx [1] was “increased (10% less than O1821)”.
In the case of “(1R,2″R,2R,2″S)-6′-ethynyl-5,5″-dimethyl-2,2″-di(prop-1-en-2-yl)-1,1″,2,2″,3,3″,4,4″-octahydro-[1,1′:3′,1″-terphenyl]-2′,4′-diol [Compound 13]”, the “Arthritis severity index (ASI), mean±S.D.” value ([4]; 10 mg/Kg IP every-other-day from D10, scoring to D76) is reported as 40.7±36.8.
For `C=C(C)[C@@H]1CCC(C)=C[C@H]1c1c(C)cc(O)cc1O` [Compound 2], the Calcium influx [1] was “increased (like DMSO, but less than O1821)”.
`C#Cc1cc(O)cc(O)c1C1C=C(C)CC[C@H]1C(=C)C` (some centres unmarked) [Compound 14] was tested, and the “FLS invasion decreased by” value [2] was “Decreased by 100%”, the Calcium influx [1] was “increased (20% greater than O1821)” and the “Arthritis severity (KRN)” value [3] was “Not protective in KRN”.
With `C=C(C)[C@@H]1CCC(C)=C[C@H]1c1c(O)cc(O)cc1O` [Compound 5] the Calcium influx [1] was “increased (25% less than O1821)”.
For `C=C(C)[C@@H]1CCC(C)=CC1c1c(O)cc(O)cc1F` (some centres unmarked) [Compound 10], the “FLS invasion decreased by” value [2] was “Decreased by 100%”, the Calcium influx [1] was “increased (20% greater than O1821)” and the “Arthritis severity (CIA)” value [4] was “Not protective KRN and CIA”. The “Arthritis severity (KRN)” value [3] was “Not protective KRN and CIA”.
In the case of `C=C(C)[C@@H]1CCC(C)=C[C@H]1c1c(O)cc(/C=C/c2ccc(O)cc2)cc1O` [Compound 7], the Calcium influx [1] is reported as “increased (50% less than O1821)”.
For `C=C(C)[C@@H]1CCC(C)=CC1c1c(O)cc(Cl)cc1O` (some centres unmarked) [Compound 12], the “FLS invasion decreased by” value [2] was “Decreased by 100%”, the Calcium influx [1] was “increased (20% greater than O1821)” and the “Arthritis severity (CIA)” value [4] was “Not protective in CIA”.
For `C=C(C)[C@H]1CCC(C)=CC1c1c(O)c(C2C=C(C)CC[C@H]2C(=C)C)c(O)c([C@@H]2C=C(C)CC[C@H]2C(=C)C)c1O` (some centres unmarked) [Compound 3], the Calcium influx [1] was “increased (20% greater than O1821)”.
